The values below come from patent US20220144812A1, “QUINOLINE DERIVATIVES AND THEIR USE FOR THE TREATMENT OF CANCER” (Epizyme, Inc., priority 2019, published 2022).

SMILES strings stand for the structures.

In assay [1] the target is T1, CREBBP (1084-1701) (Homo sapiens, UniProt Q92793).
T1 construct: measured in the following biochemical assay using CREBBP (1084-1701); purchased
The assay is described as follows: Biochemical assay for CREBBP (1084-1701), SAMDI. The note with it: SAMDI, read-out: CREBBP Biochemistry IC50. The essentials:
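Acetyltransferase activity measured by SAMDI mass spectrometry after capture on biochip. Enzyme sat with compound 30 min at RT before acetyl-CoA and biotinylated H3 11-25 (K14R, K23R) peptide were added for 30 min at RT. Formic acid quench, bicarbonate neutralisation; IC50 values reported.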

Assay [2] has as its target T2, EP300 (P300(1048-1664)) (Homo sapiens, UniProt Q09472).
T2 construct: P300(1048-1664)
T2 sequence (Q09472 1048-1664): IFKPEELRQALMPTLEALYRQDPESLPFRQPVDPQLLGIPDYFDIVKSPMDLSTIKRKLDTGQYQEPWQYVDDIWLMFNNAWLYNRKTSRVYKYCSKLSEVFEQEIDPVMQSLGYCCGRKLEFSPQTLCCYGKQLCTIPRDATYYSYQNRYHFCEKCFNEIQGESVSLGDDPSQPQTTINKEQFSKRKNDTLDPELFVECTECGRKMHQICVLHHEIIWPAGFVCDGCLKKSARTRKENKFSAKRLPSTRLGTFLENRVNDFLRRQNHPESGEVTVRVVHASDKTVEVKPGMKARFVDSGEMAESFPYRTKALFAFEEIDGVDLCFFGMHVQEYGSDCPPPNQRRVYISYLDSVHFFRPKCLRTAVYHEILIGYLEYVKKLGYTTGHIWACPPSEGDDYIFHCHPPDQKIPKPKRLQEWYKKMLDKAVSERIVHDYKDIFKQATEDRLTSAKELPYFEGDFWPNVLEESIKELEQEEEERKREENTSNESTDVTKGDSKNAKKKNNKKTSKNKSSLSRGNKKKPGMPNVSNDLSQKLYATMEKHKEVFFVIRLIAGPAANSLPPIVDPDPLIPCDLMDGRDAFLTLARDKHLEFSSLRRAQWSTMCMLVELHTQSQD
Kind of assay: Biochemical assay for EP300, SAMDI. The note with it: EP300, SAMDI; read-out: EP300 Biochemistry IC50. The source says: The following example describes materials and methods relating to a biochemical assay for EP300. IC50 values (micromolar (μM)) are summarized in Table 1, Table 2, and Table 3 under the column labeled: “EP300 Biochemistry IC50 (micromolar).”

Assay [3] relates to H3K18Ac in HB-CLS-2 cells. The assay is described as follows: H3K18AC in-cell western (ICW) assay. The note with it: H3K18Ac in-cell western; read-out: CREBBP ICW IC50. The class given is cell-based. In a few lines: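 In-cell western: after methanol fixation, blocking, overnight 4° C anti-H3K18Ac staining, then 800CW secondary plus DRAQ5 for DNA content, integrated intensities were scanned at 800 and 700 nm. Before this, compound exposure lasted 2 hr at 37° C in HB-CLS-2 cells plated 16–24 hours earlier. Values expressed as IC50 (μM).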

Assay [4] relates to 647V cells. Kind of assay: High throughput proliferation (HTP) assay. In kind it is cell-based. The note with it: Homo sapiens, 647-V, high throughput proliferation; read-out: CREBBP HTP IC50. The essentials: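 Proliferation IC50 (micromolar) derived from a 7-day CellTiter-Glo viable-cell readout in 647V cells exposed, in triplicate, to rising compound concentrations; cells grown in DMEM plus 15% heat-inactivated FBS at 37° C under 5% CO2.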

T1 sequence (Q92793 1084-1701): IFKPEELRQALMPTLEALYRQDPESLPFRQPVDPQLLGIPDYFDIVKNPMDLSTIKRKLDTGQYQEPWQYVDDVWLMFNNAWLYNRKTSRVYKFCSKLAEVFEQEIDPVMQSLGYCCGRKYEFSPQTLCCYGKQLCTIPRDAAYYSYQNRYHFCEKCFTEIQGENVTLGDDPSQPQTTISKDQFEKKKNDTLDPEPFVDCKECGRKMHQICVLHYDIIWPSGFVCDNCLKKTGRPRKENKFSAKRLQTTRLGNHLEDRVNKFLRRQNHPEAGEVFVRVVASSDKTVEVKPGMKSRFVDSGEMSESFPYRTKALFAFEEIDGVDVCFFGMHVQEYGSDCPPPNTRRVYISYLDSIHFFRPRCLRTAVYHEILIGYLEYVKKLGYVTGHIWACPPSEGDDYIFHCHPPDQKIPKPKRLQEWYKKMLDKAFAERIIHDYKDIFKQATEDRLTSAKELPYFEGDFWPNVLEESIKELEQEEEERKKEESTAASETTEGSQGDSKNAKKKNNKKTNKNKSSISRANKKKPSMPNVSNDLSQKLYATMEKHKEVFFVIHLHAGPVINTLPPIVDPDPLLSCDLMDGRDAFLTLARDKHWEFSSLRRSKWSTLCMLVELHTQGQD

As to `CCn1ncc(CN(C)C(=O)c2cc(-c3ccc(N(C)CCN)nn3)nc3ccc(Cl)cc23)c1C` [Compound 505], the IC50 in assay [1] worked out at 4520 nM; in assay [2], 3280 nM; in assay [3] it was 2340 nM; in assay [4] it was 5960 nM.
Taken in the same sequence, the figures for `CCn1ncc(CN(C)C(=O)c2cc(-c3cc4n[nH]cc4cn3)nc3ccc(COC)cc23)c1C` [Compound 506] were 64.8 nM, 7.6 nM, 185 nM and 567 nM.
For `CCn1ncc(CN(C)C(=O)c2nc(-c3cc4c(N)nn(CCNC)c4cc3C)nc3ccc(Cl)cc23)c1C` [Compound 507] the same measures were 556 nM, 1360 nM, 1600 nM and 1010 nM.
Taken in the same sequence, the figures for `CCn1ncc(CN(C)C(=O)c2nc(-c3cc4c(N)[nH]nc4cc3C)nc3ccc(COC)cc23)c1C` [Compound 508] were 46.3 nM, 22.4 nM, 174 nM and 212 nM.
`CCc1ncc(CN(C)C(=O)c2cc(-c3cc4n[nH]cc4cn3)nc3ccc(COC)cc23)n1C` [Compound 510]: the 50% inhibitory concentration (IC50) in assay [1] was determined as 62.9 nM; in assay [2] it was 9.3 nM; in assay [3] it was 225 nM; in assay [4], 465 nM.
For `CCc1ncc(CN(C)C(=O)c2cc(-c3cc(C(=O)NC)n(C)n3)nc3ccc(Cl)cc23)n1C` [Compound 512] the same measures were 15.2 nM, 4 nM, 104 nM and 110 nM.
For `CCc1ncc(CN(C)C(=O)c2cc(-c3ccc(NCCNC)c(C)n3)nc3ccc(COC)cc23)n1C` [Compound 513] the same measures were 68.4 nM, 35 nM, 470 nM and 203 nM.
Taken in the same sequence, the figures for `CCc1ncc(CN(C)C(=O)c2nc(-c3cc(C)c4[nH]c(=O)[nH]c4c3)nc3ccc(Cl)cc23)n1C` [Compound 514] were 8.96 nM, 2.7 nM, 470 nM and 363 nM.
With `CCn1ncc(CN(C)C(=O)c2nc(-c3cc4c(N)n(CCNC)nc4cc3C)nc3ccc(Cl)cc23)c1C` [Compound 515], the IC50 was 70.5 nM in assay [1], 49.4 nM in assay [2], 166 nM in assay [3] and 78.5 nM in assay [4].
For the compound `CCn1ncc(CN(C)C(=O)c2nc(-c3cc(C)nc(NCCNC)c3)nc3ccc(COC)cc23)c1C` [Compound 516], the IC50 stood at 58.4 nM in assay [1], 46.5 nM in assay [2], 194 nM in assay [3] and 125 nM in assay [4].
Taken in the same sequence, the figures for `CCc1ncc(CN(C)C(=O)c2cc(-c3ccc(NC4CCOCC4)c(C)n3)nc3ccc(Cl)cc23)n1C` [Compound 517] were 36.1 nM, 12.1 nM, 159 nM and 107 nM.
Take `CCn1ncc(CN(C)C(=O)c2cc(-c3cc4c(N)n[nH]c4c(C)n3)nc3ccc(Cl)cc23)c1C` [Compound 519]: the IC50 in assay [1] was 31.4 nM; in assay [2] it was 107 nM; in assay [3], 253 nM; in assay [4], 326 nM.
Taken in the same sequence, the figures for `CCn1ncc(CN(C)C(=O)c2cc(-c3cc(C(=O)NC)n(C)n3)nc3ccc(COC)cc23)c1C` [Compound 520] were 80.7 nM, 23.8 nM, 334 nM and 650 nM.
With `CCn1ncc(CN(C)C(=O)c2cc(-c3ccc(NCCO)c(C)n3)nc3ccc(Cl)cc23)c1C` [Compound 521], the IC50 was determined as 10 nM in assay [1], 7.1 nM in assay [2], 80.4 nM in assay [3] and 110 nM in assay [4].
Consider `CCn1ncc(CN(C)C(=O)c2nc(-c3nc4c[nH]nc4cc3C)nc3ccc(Cl)cc23)c1C` [Compound 522], for which the IC50 worked out at 26000 nM in assay [1], 16600 nM in assay [2], 16600 nM in assay [3] and 8060 nM in assay [4].
In the case of `CCc1ncc(CN(C)C(=O)c2nc(-c3cc(Cl)c4[nH]cnc4c3)nc3ccc(COC)cc23)n1C` [Compound 523], the IC50 turned out to be 6.22 nM in assay [1], 2.7 nM in assay [2], 74.1 nM in assay [3] and 34.7 nM in assay [4].
For `CCn1ncc(CN(C)C(=O)c2nc(-c3cc(C)c4c(N)n[nH]c4c3)nc3ccc(COC)cc23)c1C` [Compound 524] the same measures were 16 nM, 4 nM, 81.4 nM and 163 nM.
For `CCn1ncc(CN(C)C(=O)c2cc(-c3cnc(NCCNC)c(C)n3)nc3ccc(Cl)cc23)c1C` [Compound 525] the same measures were 54 nM, 142 nM, 260 nM and 313 nM.
For `CCc1ncc(CN(C)C(=O)c2nc(-c3cc(C)c4c(N)[nH]nc4c3)nc3ccc(Cl)cc23)n1C` [Compound 526] the same measures were 6.42 nM, 2 nM, 46.5 nM and 72 nM.
As for `CCc1ncc(CN(C)C(=O)c2nc(-c3cc(C)nc(NCCNC)c3)nc3ccc(COC)cc23)n1C` [Compound 527], the IC50 in assay [1] was determined as 67.2 nM; in assay [2], 21.2 nM; in assay [3], 798 nM; in assay [4] it was 295 nM.
Regarding `CCn1ncc(CN(C)C(=O)c2nc(-c3cc4[nH]ncc4nc3C)nc3ccc(Cl)cc23)c1C` [Compound 528], the IC50 in assay [1] was 1060 nM; in assay [2] it was 1050 nM; in assay [3], 603 nM; in assay [4], 1110 nM.
Taken in the same sequence, the figures for `CCn1ncc(CN(C)C(=O)c2cc(-c3ccc(NCCNS(C)(=O)=O)c(C)n3)nc3ccc(Cl)cc23)c1C` [Compound 529] were 20.7 nM, 10.4 nM, 137 nM and 238 nM.
For `CCn1ncc(CN(C)C(=O)c2cc(-c3cc4[nH]cnc4c(C)n3)nc3ccc(COC)cc23)c1C` [Compound 530] the same measures were 50.3 nM, 12.5 nM, 154 nM and 248 nM.
On to `CCn1ncc(CN(C)C(=O)c2cc(-c3cc(N[C@@H]4CCNC4)cc(C)n3)nc3ccc(Cl)cc23)c1C` [Compound 531], for which the IC50 was 29.9 nM in assay [1], 6.3 nM in assay [2], 350 nM in assay [3] and 88.9 nM in assay [4].
`CCn1ncc(CN(C)C(=O)c2nc(-c3ccc4n[nH]c(N)c4c3)nc3ccc(Cl)cc23)c1C` [Compound 532]: the IC50 in assay [1] was 17.3 nM; in assay [2], 15.4 nM; in assay [3], 158 nM; in assay [4] it was 288 nM.
Consider `CCn1ncc(C(C)N(C)C(=O)c2cc(-c3ccc(NCCNC)c(C)n3)nc3ccc(Cl)cc23)c1C` (centres unmarked) [Compound 533], for which the IC50 in assay [1] came to 183 nM; in assay [2], 32.4 nM; in assay [3] it was 159 nM; in assay [4], 79.6 nM.
For `CCn1ncc(CN(C)C(=O)c2cc(-c3ccc(NCC(F)(F)CNC)c(C)n3)nc3ccc(Cl)cc23)c1C` [Compound 534] the same measures were 32.4 nM, 9.1 nM, 171 nM and 228 nM.
Taken in the same sequence, the figures for `CCn1ncc(CN(C)C(=O)c2nc(-c3cc4c(N)n[nH]c4cc3C)nc3ccc(Br)cc23)c1C` [Compound 535] were 12 nM, 4.1 nM, 58.3 nM and 58.1 nM.
For `CCn1ncc(CN(C)C(=O)c2cc(-c3ccc(NC4CNCC4(F)F)c(C)n3)nc3ccc(Cl)cc23)c1C` (centres unmarked) [Compound 538] the same measures were 88.7 nM, 88.6 nM, 1060 nM and 1730 nM.

A word on the IC50: it is the concentration that inhibits the measured activity by half.
